Experimental findings from EP4177246A1, “FUSED OXAZEPINES AS INHIBITORS OF PEROXIREDOXINS” (Centro Atlántico del Medicamento, SA, priority 2021, dated 2023) are described below.

For this assay, the system named is PRDX1 and/or PRDX2. As to the kind of experiment: Resin-bound affinity chromatography with competition/elution by free compound (type of binding). As to conditions: MDA-MB-231 cell lysates; pre-incubation 1.5 hours with 50 micrograms of free compound; SDS-PAGE, silver staining. Set-up: species or system human. As for the experimental part:
The immobilization of compound (24) and the identification of its targets was accomplished using a previously described method [Orive-Ramos A, Seoane S, Ocaña A, Pandiella A, Montero JC. Regulation of the prometastatic neuregulin-MMP13 axis by SRC family kinases: therapeutic implications. Mol Oncol. 2017 Dec; 11(12): 1788-1805] (ref. 32). Briefly, 5 mg of the compound was dissolved in a coupling solution (50% dimethylformamide, 50% 0.1 M Na2CO3), and incubated with 0.5 mg of epoxy-activated sepharose 6B (GE Healthcare Life Sciences; Piscataway, NJ, USA), obtaining a CM728-coupled resin. A control resin was prepared without the compound (uncoupled). Both resins were incubated with 25 mg of cell extracts from MDA-MB-231 and BT-549 cancer cells.
The resulting complexes were retrieved by centrifugation, washed with lysis buffer, re-suspended and boiled in loading buffer and resolved in SDS-PAGE. The gel was silver stained and the bands of interest were excised, digested by trypsin (Figure 1). […]
In another experiment the resins collected after being incubated with cell lysates (analyzed in lanes 1 and 2) were further treated with free compound 24 to elute non-covalent compound 24 specific, binding proteins. […]

Regarding `O=C1C2=C(C(=O)c3c(O)ccc(O)c31)N(c1cccnc1)Cc1ccccc1O2` [Compound 24, 7,10-dihydroxy-12-(pyridin-3-yl)-12,13-dihydrobenzo[f]naphtho[2,3-b][1,4]oxazepine-6,11-dione], the “manner in which compound binds to PRDX1 and/or PRDX2” value was “non-reversible covalent manner”.
